B1: α2-macroglobulin (protein, UniProt P01023 24-1474, looked up)
Alpha-2-macroglobulin: SVSGKPQYMVLVPSLLHTETTEKGCVLLSYLNETVTVSASLESVRGNRSLFTDLEAENDVLHCVAFAVPKSSSNEEVMFLTVQVKGPTQEFKKRTTVMVKNEDSLVFVQTDKSIYKPGQTVKFRVVSMDENFHPLNELIPLVYIQDPKGNRIAQWQSFQLEGGLKQFSFPLSSEPFQGSYKVVVQKKSGGRTEHPFTVEEFVLPKFEVQVTVPKIITILEEEMNVSVCGLYTYGKPVPGHVTVSICRKYSDASDCHGEDSQAFCEKFSGQLNSHGCFYQQVKTKVFQLKRKEYEMKLHTEAQIQEEGTVVELTGRQSSEITRTITKLSFVKVDSHFRQGIPFFGQVRLVDGKGVPIPNKVIFIRGNEANYYSNATTDEHGLVQFSINTTNVMGTSLTVRVNYKDRSPCYGYQWVSEEHEEAHHTAYLVFSPSKSFVHLEPMSHELPCGHTQTVQAHYILNGGTLLGLKKLSFYYLIMAKGGIVRTGTHGLLVKQEDMKGHFSISIPVKSDIAPVARLLIYAVLPTGDVIGDSAKYDVENCLANKVDLSFSPSQSLPASHAHLRVTAAPQSVCALRAVDQSVLLMKPDAELSASSVYNLLPEKDLTGFPGPLNDQDNEDCINRHNVYINGITYTPVSSTNEKDMYSFLEDMGLKAFTNSKIRKPKMCPQLQQYEMHGPEGLRVGFYESDVMGRGHARLVHVEEPHTETVRKYFPETWIWDLVVVNSAGVAEVGVTVPDTITEWKAGAFCLSEDAGLGISSTASLRAFQPFFVELTMPYSVIRGEAFTLKATVLNYLPKCIRVSVQLEASPAFLAVPVEKEQAPHCICANGRQTVSWAVTPKSLGNVNFTVSAEALESQELCGTEVPSVPEHGRKDTVIKPLLVEPEGLEKETTFNSLLCPSGGEVSEELSLKLPPNVVEESARASVSVLGDILGSAMQNTQNLLQMPYGCGEQNMVLFAPNIYVLDYLNETQQLTPEIKSKAIGYLNTGYQRQLNYKHYDGSYSTFGERYGRNQGNTWLTAFVLKTFAQARAYIFIDEAHITQALIWLSQRQKDNGCFRSSGSLLNNAIKGGVEDEVTLSAYITIALLEIPLTVTHPVVRNALFCLESAWKTAQEGDHGSHVYTKALLAYAFALAGNQDKRKEVLKSLNEEAVKKDNSVHWERPQKPKAPVGHFYEPQAPSAEVEMTSYVLLAYLTAQPAPTSEDLTSATNIVKWITKQQNAQGGFSSTQDTVVALHALSKYGAATFTRTGKAAQVTIQSSGTFSSKFQVDNNNRLLLQQVSLPELPGEYSMKVTGEGCVYLQTSLKYNILPEKEEFPFALGVQTLPQTCDEPKAHTSFQISLSVSYTGSRSASNMAIVDVKMVSGFIPLKPTVKMLERSNHVSRTEVSSNHVLIYLDKVSNQTLSLFFTVLQDVPVRDLKPAIVKVYDYYETDEFAIAEYNAPCSKDLGNA

What was measured:
Assay type in all cases: cell-based
porcine PGCs = assay: Porcine PGCs plated in chambered slides in the absence of feeder layers, with or without growth factors; AP-positive cells counted; conditions: for Number of PGCs surviving in culture, in words: absence of feeder layers, 24, 48, 72 hours
Procedure: FIG. 8. Freshly isolated PGCs were plated in chambered slides in the absence of feeder cells and incubated in media with no protease inhibitors or antioxidants (PES), with MAC (MAC) or with NAC (NAC), either with or without growth factors (G), for 24, 48 or 72 hours. Cells were fixed, stained for alkaline phosphatase (AP) as previously described, and counted (normalized to control; left vertical axis).
After culture, colonies were stained, counted and analyzed as described above. To determine the effects of MAC and NAC on porcine PGCs, cells were exposed to those inhibitors during the first half period of culture (4-5 days) or the last half period (4-5 days), respectively. In addition, to determine the effect of MAC and NAC in the absence of feeders, cells were plated on chambered slides previously coated with 0.1% gelatin and medium with or without inhibitors in the presence or absence of growth factors. Cells were fixed, stained for AP and counted at the interval of 24, 48, and 72 hours.
Freshly isolated PGCs were plated in chambered slides in the absence of feeders and incubated in media with or without growth factors (GF) and with or without MAC and NAC. Cells were fixed, stained for AP as previously described, and counted.

[1] = test system: Bovine embryonic fibroblasts (BEF); assay: Cell cycle distribution (propidium iodide flow cytometry) of serum starved bovine embryonic fibroblasts; conditions: for Proportion of cells going into G0, in words: addition during the starvation period; for G2/M (%) / S (%): serum starvation 5 days; for G2/M (%) / S (%) / G0/G1 (%): MAC 0.7 pM, NAC 1 mM, GSH 2 mM; for G0/G1 (%): serum starvation (0.5% FBS) 5 days
Procedure: (§1) Bovine embryonic fibroblasts (BEF) were isolated from the fetus with 3-5 cm crown-rump length. After two or three passages, cells were plated one million cells per plate (100 mm) with growth medium (DMEM) with 2 mM L-glutamine, 0.1 mM β-mercaptoethanol and 10% FBS. After 24 hours, cells were washed with PBS 3-5 times and then serum starvation medium with 0.5% FBS was added. In addition, cells were treated with serum starvation medium containing apoptosis inhibitors such as a2-macroglobulin (0.7 pM), N-acetylcysteine (1 mM) and glutathione (2 mM). Cells were treated with serum starvation with or without apoptosis inhibitors for 5 or 10 days. Then cells were trypsinized and counted.
(§2) Cells (1×10^6) were washed in 0.15 M NaCI, fixed in 70% ethanol, and stored at −20° C. overnight or until ready to be analyzed. For analysis, cells were centrifuged, rinsed with PBS, resuspended in 500 μl of a 0.05 mg/ml propidium iodide/0.1% Triton X-100/0.2 mg/ml RNase A solution, and incubated for a minimum of 30 minutes at room temperature in the dark. Cells were analyzed by flow cytometry to determine DNA content. Modfit LT™ (Verity Software House, Topsham, Me.) was used to model the cell cycle distribution within each sample.

[2] = test system: Porcine embryonic fibroblast (PEF); assay: Cell cycle distribution (propidium iodide flow cytometry) of serum starved porcine embryonic fibroblasts; conditions: for Proportion of cells going into G0, in words: addition during the starvation period; for G0/G1 (%) / G2/M (%) / S (%): serum starvation 5 days, MAC 0.7 pM, NAC 1 mM, GSH 2 mM
Excerpt: (§3) Porcine embryonic fibroblast (PEF) were isolated from day 25-28 fetuses according to the methods previously described (Hogan et al., 1994). Briefly, porcine fetuses of day 25-30 (day 0=estrus) were removed from the uterus and rinsed with PBS+penicillin/streptomycin solution (PBS/PS). Head, limbs and internal organs were removed, and the carcasses were minced with razor blades or ground using a syringe head until they were the consistency of sludge. Then these were trypsinized 2-3 times using 0.25% trypsin+EDTA for 20 minutes. The supernatant fraction was removed and centrifuged to collect the cells. The cells were plated using DMEM+10% fetal bovine serum (FBS) and cultured up to 80-90% confluency before further passage.
as §1, §2

[3] = test system: Porcine embryonic fibroblast (PEF); assay: TUNEL assay (flow cytometry) of serum starved porcine embryonic fibroblasts; conditions: serum starvation 5 days, MAC 0.7 pM, NAC 1 mM, GSH 2 mM, serum starved without inhibitor 26.50
Excerpt: as §3, §1
After counting, cells were fixed and stained according to protocols with the APO-BRDU kit (Phoenix Flow Systems, San Diego, Calif.). […] To determine base line fluorescence, control cells were incubated without TdT. […] Following counterstaining with a propidium iodide/RNase A solution for 30 minutes in the dark, which allows simultaneous analysis of cell cycle position and apoptosis, cells were analyzed on a FACSCalibur™ flow cytometer (Becton Dickinson, San Jose, Calif.). Fluorescence emissions were measured at 582±21 nm for propidium iodide and 530±15 nm for fluorescein, without spectral compensation, after excitation at 488 nm by an argon-ion laser. […]

mouse ES cells = assay: Culture of mouse ES cells with NAC

Molecule | Rescue of PGCs, in words (porcine PGCs; absence of feeder layers and of growth factors, after 72 hr of culture) | Number of PGCs surviving in culture, in words (porcine PGCs) | Proportion of cells going into G0, in words [1] | G2/M (%) [1] [%] | S (%) [1] [%] | G0/G1 (%) [1] [%] | Proportion of cells going into G0, in words [2] | G0/G1 (%) [2] [%] | G2/M (%) [2] [%] | S (%) [2] [%] | 5-day Apoptosis (%) [3] [%] | % viable cells, in words (mouse ES cells; in the presence of NAC) | Effect on mouse ES cells, in words (mouse ES cells; normal culture conditions and absence of BME)
CC(=O)N[C@@H](CS)C(=O)O [NAC, N-acetylcysteine] | able to rescue the PGCs | increased the number of PGCs surviving in culture | did not affect the proportion of cells going into G0 | 10 | 2 | 88 | did not affect the proportion of cells going into G0 | 95 | 3 | 2 | 0.06 | not greatly affected | beneficial effect
B1 | – | increased the number of PGCs surviving in culture | did not affect the proportion of cells going into G0 | 10 | 5 | 85 | did not affect the proportion of cells going into G0 | 95 | 4 | 1 | 11.60 | – | –
